Where two headings read alike, the source gives them in different places.
Columns and labels:
[1] = tested on: cuprizone demyelination disease model of MS; assay: Cuprizone model, von Frey mechanical withdrawal threshold; type: in vivo, female C57BL/6 mice; settings: 0.1 mg/kg/i.p. daily
[2] = tested on: leucocyte infiltration into the spinal cord of EAE mice; assay: EAE model, H&E staining of spinal cord (leucocyte infiltration); type: in vivo, female C57BL/6 mice; settings: 0.01 mg/kg daily i.p. from onset; chronic phase
[3] = tested on: infiltrating immune cells (CD45high) in brain of EAE mice; assay: EAE model, immune cell infiltration into the brain by flow cytometry; type: in vivo, female C57BL/6 mice
itch = settings: human; cited from earlier work
Morphine induced scratch = settings: SC, EMA/CHMP/138212/2014; cited from earlier work
[4] = tested on: myelin in spinal cord of EAE mice; assay: EAE model, luxol fast blue staining of spinal cord (demyelination); type: in vivo, female C57BL/6 mice
[5] = cited from earlier work
[6] = tested on: activated GFAP+ astrocytes in the spinal cord of EAE mice; assay: EAE model, GFAP immunohistochemistry of spinal cord (activated astrocytes); type: in vivo, female C57BL/6 mice; settings: 0.01 mg/kg daily i.p. from day 17; day 45
[7] = tested on: Substance P induced scratch; assay: Substance P induced scratch mouse model; settings: SC or IV administration, top two rows of the table only, read-out: average in vivo efficacy ED50 for itch model
[8] = tested on: myelin in spinal cord of EAE mice; assay: EAE model, TEM of spinal cord sections; type: in vivo, female C57BL/6 mice; settings: 0.03 mg/kg daily i.p. from day 17; day 45
[9] = tested on: lymphocyte populations in the spleen of EAE mice; assay: EAE model, splenocytes by flow cytometry; type: in vivo, female C57BL/6 mice; settings: 0.01 mg/kg daily i.p. from onset
[10] = tested on: cuprizone demyelination disease model of MS; assay: Cuprizone model of demyelination, weight change; type: in vivo, female C57BL/6 mice
[11] = tested on: Histamine induced scratch; settings: PO, Togashi et al. (2002); cited from earlier work
[12] = tested on: cuprizone model of demyelination; assay: Cuprizone model, rotarod assay (coordination); type: in vivo, female C57BL/6 mice; settings: 0.1 mg/kg daily i.p.; week 9 relative to week 5
[13] = tested on: Substance P induced scratch; settings: cited from earlier work
[14] = tested on: myelin in corpus callosum of cuprizone-treated mice; assay: Cuprizone model, TEM of corpus callosum (g-ratio, myelinated axons, myelin area); type: in vivo, female C57BL/6 mice
[15] = 0.1 mg/kg/i.p. daily from day 28, day 70

CN(C(=O)/C=C/c1ccoc1)[C@@H]1CC[C@@]2(O)[C@H]3Cc4ccc(O)c5c4[C@@]2(CCN3CC2CC2)[C@H]1O5 [nalfurafine, (E)-N-[(4R,4aS,7R,7aR,12bS)-3-(cyclopropylmethyl)-4a,9-dihydroxy-1,2,4,5,6,7,7a,13-octahydro-4,12-methanobenzofuro[3,2-e]isoquinoline-7-yl]-3-(furan-3-yl)-N-methylprop-2-enamide]
mechanical withdrawal threshold (von Frey) ([1]; pre vs post treatment): reduced to baseline levels
mechanical threshold scores (von Frey) ([1]; vs vehicle treated mice): improved mechanical threshold scores
leucocyte infiltration score (0-3), H&E [2]: reduction of infiltrating leucocytes
number of infiltrating immune cells in brain (ratio to microglia) ([3]; 0.03 mg/kg daily i.p. from day 17, day 45): significantly reduced
number of infiltrating immune cells in brain (ratio to microglia) ([3]; 0.03 and 0.01 mg/kg daily i.p. from onset, chronic phase (>24 days)): significantly reduced
effective dose in humans for itch (itch): 2.5 μg/body/day
Complete Inhibition (Morphine induced scratch): 5 to 10 µg/kg
ED50 (Morphine induced scratch): 2.34 µg/kg
lesion load and myelin density in ventral horn (luxol fast blue) ([4]; 0.01 mg/kg daily i.p. from onset, chronic phase (Example 25)): reduces this lesion load and demyelination
% demyelination of spinal cord (luxol fast blue) ([4]; 0.03 or 0.01 mg/kg daily i.p. from onset, chronic phase): significant reduction
Bioavailability ([5]; intravenous (IV)): 100%
Bioavailability ([5]; oral (PO) administration): ~32%
Bioavailability ([5]; subcutaneous (s.c.)): 96%
number of activated GFAP+ astrocytes per section [6]: significantly reduces
ED50 [7]: ~2.71 µg/kg
myelination of nerve axons in spinal cord (TEM) [8]: healthy and well-myelinated
proportion of major lymphocyte populations in spleen (CD4, CD8, B220; % live leukocytes) ([9]; 27 days post treatment initiation): do not alter
Teff:cm ratio (effector to central memory CD4 T cells) ([9]; 27 days, vs vehicle): reduced ratio
overall number of CD4 T cells in spleen ([9]; 27 days, vs vehicle): the same
% weight change in recovery phase ([10]; 0.1 mg/kg daily i.p. from day 28, cuprizone 35 days, vs vehicle or U-50488): enhances recovery of the lost weight faster
% weight change (reversal of cuprizone weight loss) ([10]; 0.1 mg/kg daily i.p. from week 4, 0.3% cuprizone 5 weeks, vs vehicle (Example 7)): reversed significantly more effectively
Complete Inhibition [11]: 30 to 100 µg/kg
ED50 [11]: 7.3 µg/kg
rotarod performance (coordination) [12]: reversed
Complete Inhibition ([13]; IV, EMA/CHMP/138212/2014): 7.5 to 10 µg/kg
ED50 ([13]; IV, EMA/CHMP/138212/2014): 3.77 µg/kg
Inhibition reached at the dose given under Complete Inhibition ([13]; PO, 100 μg/kg, EMA/CHMP/138212/2014): (66%)
Complete Inhibition ([13]; PO, EMA/CHMP/138212/2014): 100 µg/kg
ED50 ([13]; PO, EMA/CHMP/138212/2014): 9.61 µg/kg
Complete Inhibition ([13]; PO, Togashi et al. (2002)): 100 µg/kg
ED50 ([13]; PO, Togashi et al. (2002)): 19.6 µg/kg
Complete Inhibition ([13]; SC, EMA/CHMP/138212/2014): 10 µg/kg
ED50 ([13]; SC, EMA/CHMP/138212/2014): 1.65 µg/kg
myelin in corpus callosum (TEM, g-ratio) ([14]; 0.1 mg/kg daily i.p. from week 4, day 65 (Example 9)): more myelin was detected
area of myelin staining per TEM image [14, 15]: percentage increase in area of myelination
mean g-ratio (corpus callosum) [14, 15]: 0.75±0.15
number of myelinated axons vs non-myelinated axons [14, 15]: percentage increase in the number of myelinated axons

From US11324742B2, “Treatment of demyelinating diseases” (Victoria Link Ltd., priority 2018, dated 2022)
